Laboratory results taken from PubChem BioAssay AID1918933 (Molecular Pharmacology Branch, DTP, NCI, 2023).
Several values for one entry are separate records, joined by “and”; a condition that tells them apart may be missing. Equal entries are not always repeated.

Test system: 186277-243-T-J2-PDC complex spheroid viability
Assay: Anticancer human tumor 186277-243-T-J2-PDC patient-derived colon adenocarcinoma cell line growth inhibition
Conditions: for viability, T/C: stronger effect = lower value
Method in brief: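 Drug combinations with the LSD1 inhibitor iadademstat tested on tumor cells co-cultured as spheroids with endothelial cells and mesenchymal stem cells. Concentrations descended in half-log increments from clinical Cmax or 10 microM.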

[1] = curve of first compound, second compound 0.1 µM
[2] = curve of first compound, second compound 0.316 µM
[3] = curve of first compound, second compound 1 µM
[4] = curve of first compound, second compound 3.16 µM
[5] = curve of first compound, second compound 10 µM
[6] = second compound 0.1 µM, first compound 0.0316 µM
[7] = second compound 0.1 µM, first compound 0.1 µM
[8] = second compound 0.1 µM, first compound 0.316 µM
[9] = second compound 0.1 µM, first compound 1 µM
[10] = second compound 0.316 µM, first compound 0.0316 µM
[11] = second compound 0.316 µM, first compound 0.1 µM
[12] = second compound 0.316 µM, first compound 0.316 µM
[13] = second compound 0.316 µM, first compound 1 µM
[14] = second compound 1 µM, first compound 0.0316 µM
[15] = second compound 1 µM, first compound 0.1 µM
[16] = second compound 1 µM, first compound 0.316 µM
[17] = second compound 1 µM, first compound 1 µM
[18] = second compound 3.16 µM, first compound 0.0316 µM
[19] = second compound 3.16 µM, first compound 0.1 µM
[20] = second compound 3.16 µM, first compound 0.316 µM
[21] = second compound 3.16 µM, first compound 1 µM
[22] = second compound 10 µM, first compound 0.0316 µM
[23] = second compound 10 µM, first compound 0.1 µM
[24] = second compound 10 µM, first compound 0.316 µM
[25] = second compound 10 µM, first compound 1 µM
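Further: 7 day exposure to compounds.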
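Wherever viability, T/C is given: 100% = DMSO vehicle control viability.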

Q: Which results are given for `COc1ccc([C@@H](O)c2cc(-c3ncnc4cc(N5CCOCC5)ccc34)c(F)cc2Cl)nn1` + NC1CC1c1ccc(-c2cccc(O)c2)cc1?
A: IC50 [1]: 5370 nM; IC50 [2]: 4680 nM; IC50 [3]: 4390 nM; IC50 [4]: 4410 nM; IC50 [5]: 3730 nM; viability, T/C [6]: 105%; viability, T/C [7]: 109%; viability, T/C [8]: 112%; viability, T/C [9]: 96.3%; viability, T/C (second compound 0.1 µM, first compound 3.16 µM): 81.8%; viability, T/C (second compound 0.1 µM, first compound 10 µM): 14%; viability, T/C [10]: 109%; viability, T/C [11]: 108%; viability, T/C [12]: 110%; viability, T/C [13]: 89.1%; viability, T/C (second compound 0.316 µM, first compound 3.16 µM): 70.8%; viability, T/C (second compound 0.316 µM, first compound 10 µM): 12.8%; viability, T/C [14]: 107%; viability, T/C [15]: 113%; viability, T/C [16]: 114%; viability, T/C [17]: 80.9%; viability, T/C (second compound 1 µM, first compound 3.16 µM): 68.7%; viability, T/C (second compound 1 µM, first compound 10 µM): 12.9%; viability, T/C [18]: 110%; viability, T/C [19]: 118%; viability, T/C [20]: 97.1%; viability, T/C [21]: 102%; viability, T/C (second compound 3.16 µM, first compound 3.16 µM): 64.7%; viability, T/C (second compound 3.16 µM, first compound 10 µM): 11.7%; viability, T/C [22]: 97.7%; viability, T/C [23]: 103%; viability, T/C [24]: 106%; viability, T/C [25]: 91.3%; viability, T/C (second compound 10 µM, first compound 3.16 µM): 57.8%; viability, T/C (second compound 10 µM, first compound 10 µM): 5.72%

Q: Which results are given for `CC[C@@]1(O)C(=O)OCc2c1cc1n(c2=O)Cc2cc3c(CN(C)C)c(O)ccc3nc2-1`?
A: viability, T/C (compound 0.000316 µM): 113% and 102%; viability, T/C (compound 0.001 µM): 101% and 98%; viability, T/C (compound 0.00316 µM): 95.7% and 113%; viability, T/C (compound 0.01 µM): 93.4% and 118%; viability, T/C (compound 0.0316 µM): 74.8% and 75.9%; viability, T/C (compound 0.1 µM): 41.5% and 30.9%; IC50 (curve of compound): 75.9 nM and 61.3 nM

Q: Which IC50 [1] does the source give for `CCN(c1cc(-c2ccc(CN3CCOCC3)cc2)cc(C(=O)NCc2c(C)cc(C)[nH]c2=O)c1C)C1CCOCC1` + NC1CC1c1ccc(-c2cccc(O)c2)cc1 here?
A: 2220 nM

Q: And the IC50 [2]?
A: 2280 nM

Q: And the IC50 [3]?
A: 2190 nM

Q: What about the IC50 [4] of the same molecule?
A: 2220 nM

Q: What about the IC50 [5] of the same molecule?
A: 2010 nM

Q: What about the viability, T/C (second compound 0.1 µM, first compound 0.00949 µM) of the same molecule?
A: 92%

Q: What about the viability, T/C (second compound 0.1 µM, first compound 0.03 µM) of the same molecule?
A: 113%

Q: And the viability, T/C (second compound 0.1 µM, first compound 0.0949 µM)?
A: 113%

Q: What about the viability, T/C (second compound 0.1 µM, first compound 0.3 µM) of the same molecule?
A: 112%

Q: What about the viability, T/C (second compound 0.1 µM, first compound 0.949 µM) of the same molecule?
A: 123%

Q: What about the viability, T/C (second compound 0.1 µM, first compound 3 µM) of the same molecule?
A: 28.4%

Q: And the viability, T/C (second compound 0.316 µM, first compound 0.00949 µM)?
A: 107%

Q: What about the viability, T/C (second compound 0.316 µM, first compound 0.03 µM) of the same molecule?
A: 113%

Q: And the viability, T/C (second compound 0.316 µM, first compound 0.0949 µM)?
A: 129%

Q: What about the viability, T/C (second compound 0.316 µM, first compound 0.3 µM) of the same molecule?
A: 120%

Q: And the viability, T/C (second compound 0.316 µM, first compound 0.949 µM)?
A: 120%

Q: What about the viability, T/C (second compound 0.316 µM, first compound 3 µM) of the same molecule?
A: 28.6%

Q: And the viability, T/C (second compound 1 µM, first compound 0.00949 µM)?
A: 104%

Q: And the viability, T/C (second compound 1 µM, first compound 0.03 µM)?
A: 111%

Q: What about the viability, T/C (second compound 1 µM, first compound 0.0949 µM) of the same molecule?
A: 121%

Q: And the viability, T/C (second compound 1 µM, first compound 0.3 µM)?
A: 116%

Q: What about the viability, T/C (second compound 1 µM, first compound 0.949 µM) of the same molecule?
A: 120%

Q: And the viability, T/C (second compound 1 µM, first compound 3 µM)?
A: 25.8%

Q: And the viability, T/C (second compound 3.16 µM, first compound 0.00949 µM)?
A: 106%

Q: And the viability, T/C (second compound 3.16 µM, first compound 0.03 µM)?
A: 113%

Q: What about the viability, T/C (second compound 3.16 µM, first compound 0.0949 µM) of the same molecule?
A: 111%

Q: What about the viability, T/C (second compound 3.16 µM, first compound 0.3 µM) of the same molecule?
A: 108%

Q: What about the viability, T/C (second compound 3.16 µM, first compound 0.949 µM) of the same molecule?
A: 124%

Q: And the viability, T/C (second compound 3.16 µM, first compound 3 µM)?
A: 27.8%

Q: And the viability, T/C (second compound 10 µM, first compound 0.00949 µM)?
A: 100%

Q: And the viability, T/C (second compound 10 µM, first compound 0.03 µM)?
A: 99.7%

Q: What about the viability, T/C (second compound 10 µM, first compound 0.0949 µM) of the same molecule?
A: 88.4%

Q: And the viability, T/C (second compound 10 µM, first compound 0.3 µM)?
A: 107%

Q: What about the viability, T/C (second compound 10 µM, first compound 0.949 µM) of the same molecule?
A: 103%

Q: And the viability, T/C (second compound 10 µM, first compound 3 µM)?
A: 23.5%

Q: `COc1cc(Nc2ncc3c(n2)-c2ccc(Cl)cc2C(c2c(F)cccc2OC)=NC3)ccc1C(=O)O` + NC1CCC(NC2CC2c2ccccc2)CC1 was tested. Which IC50 [1] did it give?
A: 13 nM

Q: What about the IC50 [2] of the same molecule?
A: 11.2 nM

Q: And the IC50 [3]?
A: 10.4 nM

Q: And the IC50 [4]?
A: 10.6 nM

Q: What about the IC50 [5] of the same molecule?
A: 13.7 nM

Q: And the viability, T/C (second compound 0.1 µM, first compound 0.00316 µM)?
A: 131%

Q: And the viability, T/C (second compound 0.1 µM, first compound 0.01 µM)?
A: 59.2%

Q: What about the viability, T/C [6] of the same molecule?
A: 19.2%

Q: And the viability, T/C [7]?
A: 0.36%

Q: And the viability, T/C [8]?
A: 0.06%

Q: What about the viability, T/C [9] of the same molecule?
A: 0.02%

Q: And the viability, T/C (second compound 0.316 µM, first compound 0.00316 µM)?
A: 119%

Q: And the viability, T/C (second compound 0.316 µM, first compound 0.01 µM)?
A: 54.1%

Q: What about the viability, T/C [10] of the same molecule?
A: 11.7%

Q: What about the viability, T/C [11] of the same molecule?
A: 0.19%

Q: And the viability, T/C [12]?
A: 0.05%

Q: What about the viability, T/C [13] of the same molecule?
A: 0.01%

Q: And the viability, T/C (second compound 1 µM, first compound 0.00316 µM)?
A: 109%

Q: And the viability, T/C (second compound 1 µM, first compound 0.01 µM)?
A: 51.1%

Q: And the viability, T/C [14]?
A: 11.3%

Q: What about the viability, T/C [15] of the same molecule?
A: 0.14%

Q: And the viability, T/C [16]?
A: 0.02%

Q: And the viability, T/C [17]?
A: 0.01%

Q: And the viability, T/C (second compound 3.16 µM, first compound 0.00316 µM)?
A: 120%

Q: And the viability, T/C (second compound 3.16 µM, first compound 0.01 µM)?
A: 51.8%

Q: What about the viability, T/C [18] of the same molecule?
A: 13.2%

Q: And the viability, T/C [19]?
A: 0.12%

Q: What about the viability, T/C [20] of the same molecule?
A: 0.04%

Q: What about the viability, T/C [21] of the same molecule?
A: 0.01%

Q: And the viability, T/C (second compound 10 µM, first compound 0.00316 µM)?
A: 128%

Q: What about the viability, T/C (second compound 10 µM, first compound 0.01 µM) of the same molecule?
A: 58.6%

Q: And the viability, T/C [22]?
A: 27.7%

Q: What about the viability, T/C [23] of the same molecule?
A: 0.81%

Q: And the viability, T/C [24]?
A: 0.06%

Q: What about the viability, T/C [25] of the same molecule?
A: 0.02%
